Patent US20120129822A1, “COMPOSITION CONTAINING DIOSGENIN AND USE THEREOF TO IMPROVE AT LEAST ONE OF COGNITIVE DEFICITS ASSOCIATED WITH MENOPAUSAL SYNDROME” (TL & GM Chemical Company, priority 2010, published 2012)
“Also recorded” adds a separate entry of the source.

Assays:
[1] = system: OVX rats having clinical signs of osteoporosis; conditions: sustained delivery; cited from earlier work
[2] = system: breast cancer-burdened mice; conditions: cited from earlier work
OVX rats = test: Object recognition test in open box; type: in vivo, female Wistar rats
Method: Three daily dosages of diosgenin, i.e., 10, 50, or 100 mg/kg, were administered to the experimental animals in the following experiments. A proper amount of diosgenin (Sigma, USA, required for formulating a respective one of the three daily dosages) was mixed with 1 g of toast or raw dough (prepared by mixing flour and water in a ratio of 2:1 (wt/wt)), thereby forming a diosgenin-containing pellet. The experimental animals were orally administered with the diosgenin-containing pellets, starting about 4 weeks after ovariectomy. The open box is made of black polyvinyl plastics. Three objects, which are respectively designated as A1, A2, and A3, are identical in terms of size, color, shape, and material, and have no specific scents. Each of the objects A1, A2, A3 was placed on the bottom of the open box and was spaced apart from a respective one of three corners C1, C2, C3 of the open box by 21 cm (see FIG. 2(A)). The object A3 was later replaced with an object B different from the object A3 in terms of size, color, shape, and material, and having no specific scents (see FIG. 2(B)). Prior to an experiment, each of the objects A1, A2, A3, B was unfamiliar to the experimental animals. The open box and the objects A1, A2, A3, B were thoroughly cleaned using 20% ethanol, and were subsequently thoroughly dried before each of the experimental animals was tested. After the female Wistar rats were raised in the animal room for 4 weeks, the same were subjected to ovariectomy according to the method as described in the section, entitled “1. Ovariectomy”, of the General Experimental Procedure. On the 29th day after the surgery, the OVX rats were randomly divided into four groups including a control group (n=20) and three experimental groups (respectively designated as diosgenin group 1 (n=20), diosgenin group 2 (n=12), and diosgenin group 3 (n=19)). The diosgenin-containing pellets (made using diosgenin and raw dough), which were prepared according to the method as described in the section entitled “2. […]

OVX rats without anxiety = test: Learned helplessness test (day-2 active avoidance test, shuttle box), OVX rats without anxiety; type: in vivo, female Wistar rats; conditions: for Avoidance response (number) / Escape response (number) / Failure response (number): 23 days, 16 trials, mean±SEM
Method: (§1) Three daily dosages of diosgenin, i.e., 10, 50, or 100 mg/kg, were administered to the experimental animals in the following experiments. A proper amount of diosgenin (Sigma, USA, required for formulating a respective one of the three daily dosages) was mixed with 1 g of toast or raw dough (prepared by mixing flour and water in a ratio of 2:1 (wt/wt)), thereby forming a diosgenin-containing pellet. The experimental animals were orally administered with the diosgenin-containing pellets, starting about 4 weeks after ovariectomy.
(§2) A shuttle box used in Example 1 (AccuScan, USA) is composed of two equal compartments. Each of the compartments has a grid floor made of stainless steel bars. The compartments are separated by a wall having a central door. Specifically, the central door can be closed to separate the two compartments, or can be opened to allow the experimental animals to move freely between the two compartments therethrough. A conditioned stimulus (CS, a stimulus consisting of a tone (75 db) and a light (250 lux) and lasting 3 seconds) and an unconditioned stimulus (UCS, an electric foot shock (0.5 mA) lasting a maximum of 10 seconds) were administered to the experimental animals from the shuttle box under control of a computer. The shuttle box was thoroughly cleaned using 20% ethanol and was subsequently thoroughly dried before each of the experimental animals was tested.
(§3) The OVX rats with and without anxiety, which were identified in the preceding section A, were respectively randomly subdivided into 4 groups including a control group and three experimental groups (respectively designated as diosgenin groups 1-3). The diosgenin-containing pellets (made using diosgenin and toast), which were prepared according to the method as described in the section entitled “2. Diosgenin-containing pellets” of the Experimental Materials, respectively comprised the three daily dosages of diosgenin (i.e., 10, 50, and 100 mg/kg), and were respectively administered to the OVX rats in diosgenin groups 1-3 daily. In other words, the daily dosage of diosgenin administered to the OVX rats in diosgenin group 1 was 10 mg/kg, the daily dosage of diosgenin administered to the OVX rats in diosgenin group 2 was 50 mg/kg, and the daily dosage of diosgenin administered to the OVX rats in diosgenin group 3 was 100 mg/kg. The toast without diosgenin was administered daily to the OVX rats in the control group. After 23 days of administration, the OVX rats in each group were subjected to the following learned helplessness test so as to investigate the effect of diosgenin on the learning ability of the OVX rats with and without anxiety under stress.
(§4) The learned helplessness test in this example was conducted substantially according to the methods as described in W. F. Wang et al. (2007), Chin. J. Physiol., 50:63-68 and Y. T. Lee et al. (2008), Neuroreport, 19:1243-1247, except for minor modifications. The learned helplessness test in this example is generally described as follows.
(§5) The respective OVX rat was placed in one of the two compartments of the shuttle box, and was allowed to explore the two compartments through the central door, which was opened, for 1 minute. Afterward, the central door was closed. The respective OVX rat was subjected to 40 trials of inescapable CS-UCS pairing. Specifically, each of the 40 trials of inescapable CS-UCS pairing consisted of a CS and a subsequent UCS, and a mean interval between the two successive trials of inescapable CS-UCS pairing was 60 seconds (the interval between the two successive trials of inescapable CS-UCS pairing ranged from 50 to 70 seconds).
(§6) The respective OVX rat was placed in one of the two compartments of the shuttle box, and was allowed to explore the two compartments through the central door, which was opened, for 1 minute. Subsequently, the respective OVX rat was subjected to 16 trials of escapable CS-UCS pairing. […]

OVX rats with anxiety = test: Learned helplessness test (day-2 active avoidance test, shuttle box), OVX rats with anxiety; type: in vivo, female Wistar rats; conditions: 23 days; for Avoidance response (number) / Failure response (number) / Escape response (number): 16 trials, mean±SEM
Method: as §1, §2, §3, §4, §5, §6

OVX mice = conditions: cited from earlier work
[3] = diosgenin group 1, 10 mg/kg daily oral, n=7
[4] = diosgenin group 2, 50 mg/kg daily oral, n=6
[5] = diosgenin group 3, 100 mg/kg daily oral, n=6
[6] = diosgenin group 1, 10 mg/kg daily oral, n=12
[7] = diosgenin group 2, 50 mg/kg daily oral, n=11
[8] = diosgenin group 3, 100 mg/kg daily oral, n=11

estrogen
Bone loss after ovariectomy [1]: significantly reduced | Side effects on other body organs [1]: without inducing side effects on other body organs

C[C@@H]1CC[C@@]2(OC1)O[C@H]1C[C@H]3[C@@H]4CC=C5C[C@@H](O)CC[C@]5(C)[C@H]4CC[C@]3(C)[C@H]1[C@@H]2C [diosgenin]
Tumor growth [2]: does not accelerate the tumor growth | Exploration time spent on object B in the third trial, comparison among groups (result in words) (OVX rats; diosgenin group 2, 50 mg/kg daily oral, 26 days, FIG. 3): the longest | Exploration time spent on object B in the third trial versus object A3 in the second trial (result in words) (OVX rats; each of diosgenin groups 1-3 (10, 50, 100 mg/kg daily oral, 26 days), FIG. 3): longer than exploration time spent on object A3 in the second trial | Ability to memorize a familiar object and to recognize a difference between familiar and novel object (result in words) (OVX rats; oral diosgenin-containing pellets, 26 days): able to improve the ability to memorize a familiar object and the ability to recognize a difference between the familiar object and a novel object; also recorded: able to improve the ability to memorize a familiar object, and the ability to recognize a difference between the familiar object and a novel object | Avoidance response (number) (OVX rats without anxiety; [3]): 1.3 ± 0.6 number | Escape response (number) (OVX rats without anxiety; [3]): 11.7 ± 1.4 number | Failure response (number) (OVX rats without anxiety; [3]): 3.0 ± 1.6 number | Avoidance response (number) (OVX rats without anxiety; [4]): 1.2 ± 0.4 number | Escape response (number) (OVX rats without anxiety; [4]): 13.8 ± 0.5 number | Failure response (number) (OVX rats without anxiety; [4]): 0.7 ± 0.3 number | Avoidance response (number) (OVX rats without anxiety; [5]): 2.5 ± 0.8 number | Escape response (number) (OVX rats without anxiety; [5]): 12.5 ± 1.1 number | Failure response (number) (OVX rats without anxiety; [5]): 0.8 ± 0.7 number | Number of avoidance response and number of escape response versus control group (result in words) (OVX rats without anxiety; diosgenin groups 1-3 (10, 50, 100 mg/kg daily oral)): not obviously different from those regarding the OVX rats in the control group | Avoidance response (number) (OVX rats with anxiety; [6]): 2.5 ± 0.9 number | Failure response (number) (OVX rats with anxiety; [6]): 4.2 ± 1.3 number | Escape response (number) (OVX rats with anxiety; diosgenin group 1, 10 mg/kg daily oral, n=12, p<0.05 vs control): 9.3 ± 1.3 number | Avoidance response (number) (OVX rats with anxiety; [7]): 1.3 ± 0.5 number | Escape response (number) (OVX rats with anxiety; [7]): 10.4 ± 1.4 number | Failure response (number) (OVX rats with anxiety; [7]): 4.4 ± 1.4 number | Avoidance response (number) (OVX rats with anxiety; [8]): 1.4 ± 0.4 number | Escape response (number) (OVX rats with anxiety; [8]): 13.2 ± 0.6 number | Failure response (number) (OVX rats with anxiety; [8]): 1.4 ± 0.5 number | Learning ability of the OVX rats with anxiety (result in words) (OVX rats with anxiety; oral diosgenin-containing pellets): capable of significantly improving the learning ability of the OVX rats with anxiety | Epidermal thickness of OVX mice (OVX mice; animal model of menopause): capable of improving epidermal thickness | Keratinocyte proliferation in aged skin (OVX mice; animal model of menopause): able to restore keratinocyte proliferation in aged skin | Degree of fat accumulation (OVX mice): without altering the degree of fat accumulation | Bone loss after ovariectomy [1]: significantly reduced | Side effects on other body organs [1]: without inducing side effects on other body organs

C[C@]12CC[C@H](O)CC1=CC[C@@H]1[C@@H]2CC[C@]2(C)C(=O)CC[C@@H]12 [DHEA, dehydroepiandrosterone]
Bone loss after ovariectomy [1]: significantly reduced | Side effects on other body organs [1]: without inducing side effects on other body organs
